For data set [1] the following is noted: cited from earlier work.
The subject of data set [2] is trophozoites of Entamoeba histolytica HM1:IMSS strain. Description: Amoebicidal (antiproliferative) activity on trophozoite cultures, viability by trypan blue / CFDA-propidium iodide. In kind it is cell-based. The note with it: for increase in the amoebicidal activity: compared with the parent compound 3a. How it is done: Trophozoites of the E. histolytica HM1:IMSS strain were axenically grown by placing 1 × 10^5 live trophozoites in tubes with 3 mL of supplemented TYI-S33 medium. Amoebic trophozoite viability exposed to 1000, 100, 10, 1, 0.1, and 0.01 μM of each experimental compound was determined at 24, 48, and 72 h with trypan blue vital marker and confirmed with the fluorescent dyes carboxyfluorescein diacetate (CFDA) and propidium iodide. Either 100 μL of Trypan blue 0.4% or 1 μL of 5 μM CFDA (Invitrogen Molecular Probes, Inc., Eugene, OR, USA) and 1 μL of 1.5 μM propidium iodide were added to samples of 100 μL containing around 1 × 10^4 treated trophozoites, mixed, and incubated at room temperature for 15 min. The final solutions were mixed and incubated at room temperature for 15 min to perform the counting with an Olympus BX51 fluorescence microscope. The IC50 values were calculated by a multivariable regression using the amoebic viability curves for the tree times evaluated on GraphPad Prism 10.0.

For data set [3] the following is noted: RP-TLC, methanol/water 80:20; standard deviation in parentheses, three determinations.
Details of data set [4]: method as in doi:10.1016/j.jorganchem.2017.05.002. Conditions: cited from earlier work.
Data set [5] relates to amoeba trophozoites. Further details: method as in PMID 27863300. The note with it: cited from earlier work.
Data set [6] in a line: Electrochemical measurements (voltammetry) of redox potentials in acetonitrile. In kind it is physicochemical. The note with it: TBATFB 0.1 M; for E(I) half-wave redox potential / E(II) half-wave redox potential: vs. Fc/Fc+. How it is done: Two oxidation (Ia, IIa) and two reduction (Ic, IIc) processes with half-wave potential values E(I) = −0.022 V and E(II) = 0.164 V were observed. The electronic communication between both Ferrocene units was evaluated using the ΔE(II–I) to calculate the comproportionation constant (Kcom). According to the Kcom value 1563, the mixed-valence compound is a Class II compound in the Robin–Day classification with slight electronic delocalization between the two redox centers. This slight communication between iron ions allows the identification of two independent and sequential redox processes. It confirms the absence of chemical or adsorption processes associated with redox transformation (Figure 1b). Similar results were found for compound 3e (Table 1). The relationship between redox potential values found for compounds 3a–e follows the equation EII(V) = 1.01EI(V) + 0.1897 (R^2 = 0.9894, F = 280.7, Figure 2a).
Individual diferrocenylvinyloxazolines 3a–e (Figure 6) were isolated using Al2O3 column chromatography (activity grade III, elution with hexane-ether 4:1). In the solid state, fine crystalline substances of orange color represent them. The E and Z […] could be separated by a chromatographic column. In this work, only Z-enantiomers were employed, as described in the compound characterization. The structures of compounds 3a–e were determined based on mass spectrometry, FT-IR, ^1H, and ^13C NMR spectroscopy, and elemental analysis. UV–vis spectra of 3a–e were acquired using acetonitrile solutions at different concentrations in a Genesis 30 Spectrophotometer (Thermo Scientific, Waltham, MA, USA) from 325 to 1100 nm. Electrochemical measurements for compounds 3c and 3e were performed using conditions reported previously. Briefly, acetonitrile solutions at different concentrations of the compound with tetrabutylammonium tetrafluoroborate (TBATFB) 0.1M as a supporting electrolyte, platinum disk as a working electrode, and Ag/AgNO3 as a reference in a potentiostat/galvanostat (EG&G PAR 273). The scan rate was 0.1 V/s, from open circuit potential to positive direction. Bubbling N2 deoxygenated the working solution before each measurement.

Setting [7] is: E. histolytica HM1:IMSS trophozoites, viability curves at 24, 48 and 72 h, read-out: IC50.
Where [8] appears, read: logarithmic units of IC50 in µM.

“And” between values parts separate entries of the source, which are not always exact repeats. Equal entries are not always repeated. Where two headings read alike, the source gives them in different places. Marks after values point to notes of the source that are not given here.

With `C(=C(/C1=NCCN1)[c-]1cccc1)/[c-]1cccc1.[Fe+2].[Fe+2].c1cc[cH-]c1.c1cc[cH-]c1` [2-(Z-1,2-diferrocenylvinyl)-imidazoline], in data set [1], the “E(I) redox potential” value is reported as 0.250 V and the “E(II) redox potential” value is listed as 0.437 V.

Take `CC1COC(/C(=C\[c-]2cccc2)[c-]2cccc2)=N1.[Fe+2].[Fe+2].c1cc[cH-]c1.c1cc[cH-]c1` (centres unmarked) [Compound 3b, 2-(Z-1,2-diferrocenylvinyl)-4-methyl-4,5-dihydrooxazole]: the IC50 in data set [2] (setting [7]) came to 100 ± 9 µM. The “increase in the amoebicidal activity” value in data set [2] is on record as 10 fold. Further, the “−log (1/IC50)” value in data set [2] (setting [8]) was determined as 2. Further, the lipophilicity (logP) in data set [3] was 4.76 (0.1). The “E(I) redox potential” value is −0.019 ^a V in data set [4] (acetonitrile, vs. Fc/Fc+) and −19 mV in data set [4]. In addition, the “E(II) redox potential” value in data set [4] (acetonitrile, vs. Fc/Fc+) was 0.182 ^a V; in data set [4], 182 mV.

With `[Fe+2].c1cc[cH-]c1.c1ccc2c(c1)CCC1C2=Nc2ccccc2SC1[c-]1cccc1` (centres unmarked) [(5,6,6a,7-tetrahydrobenzo[b]naphtho [1,2-e][1,4]thiazepin-7-yl)ferrocene], the redox potential result in data set [1] is “+0.005 V”. The IC50 in data set [5] is 7.5 µM.

Turning to `COc1cc2c(c(OC)c1OC)CCC1C2=Nc2ccccc2SC1[c-]1cccc1.[Fe+2].c1cc[cH-]c1` (centres unmarked) [(2,3,4-trimethoxy-5,6,6a,7-tetrahydrobenzo[b]naphtho [1,2-e][1,4]thiazepin-7-yl)ferrocene], the redox potential result in data set [1] was “+0.042 V”. The IC50 in data set [5] is 12.6 µM.

Regarding “2-(Z-2,3-diferrocenylvinyl)-4,5-dihydrooxazole [Compound 3a]”, the IC50 in data set [2] (setting [7]) is 1000 ± 46 µM. The “−log (1/IC50)” value in data set [2] (setting [8]) was determined as 3. Moreover, the logP in data set [3] is given as 4.42 (0.2). Also, in data set [4] (acetonitrile, vs. Fc/Fc+), the “E(I) redox potential” value was 0.116 V and 0.116 ^a V; the “E(II) redox potential” value is 0.305 V and 0.305 ^a V. Also, in data set [4], the “E(I) redox potential” value is 116 mV and the “E(II) redox potential” value was 305 mV.

Consider `C(=C(/C1=NC(Cc2ccccc2)CO1)[c-]1cccc1)/[c-]1cccc1.[Fe+2].[Fe+2].c1cc[cH-]c1.c1cc[cH-]c1` (centres unmarked) [Compound 3e, 2-(Z-1,2-diferrocenylvinyl)-4-benzyl-4,5-dihydrooxazole], for which, in data set [2] (setting [7]), the IC50 is 385 ± 11 µM. In addition, the “increase in the amoebicidal activity” value in data set [2] stood at 2.5 fold. Also, the “−log (1/IC50)” value in data set [2] (setting [8]) amounted to 2.58. In data set [6], the “E(I) redox potential” value was −65 mV, the “E(II) redox potential” value is 124 mV, the “E(I) half-wave redox potential” value was −0.065 V and the “E(II) half-wave redox potential” value came out at 0.124 V. Besides, the logP in data set [3] is given as 6.1 (0.09).

Regarding `C(=C(/C1=NCCS1)[c-]1cccc1)/[c-]1cccc1.[Fe+2].[Fe+2].c1cc[cH-]c1.c1cc[cH-]c1` [2-(Z-1,2-diferrocenylvinyl)-4,5-dihydro-1,3-thiazole], in data set [1], the “E(I) redox potential” value was 0.251 V and the “E(II) redox potential” value is 0.408 V.

On to `CC(C)C1COC(/C(=C\[c-]2cccc2)[c-]2cccc2)=N1.[Fe+2].[Fe+2].c1cc[cH-]c1.c1cc[cH-]c1` (centres unmarked) [Compound 3c, 2-(Z-1,2-diferrocenylvinyl)-4-isopropyl-4,5-dihydrooxazole], for which, in data set [2] (setting [7]), the IC50 is 1890 µM. Further, in data set [6], the “E(I) redox potential” value is −22 mV, the “E(II) redox potential” value is 167 mV, the “E(I) half-wave redox potential” value was −0.022 V and the “E(II) half-wave redox potential” value is 0.167 V. For the same compound, the logP in data set [3] is reported as 5.48 (0.1).

Take `C(=C(/C1=NC(c2ccccc2)CO1)[c-]1cccc1)/[c-]1cccc1.[Fe+2].[Fe+2].c1cc[cH-]c1.c1cc[cH-]c1` (centres unmarked) [Compound 3d, 2-(Z-1,2-diferrocenylvinyl)-4-phenyl-4,5-dihydrooxazole]: in data set [2] (setting [7]), the IC50 amounted to 23 ± 3 µM. For the same compound, the “increase in the amoebicidal activity” value in data set [2] is “more than 40 fold”. In addition, in data set [2] (setting [8]), the “−log (1/IC50)” value is 1.36. In data set [3], the logP is 5.62 (0.2). Also, in data set [4] (acetonitrile, vs. Fc/Fc+), the “E(I) redox potential” value is recorded as −0.045 ^a V and the “E(II) redox potential” value was 0.135 ^a V. In data set [4], the “E(I) redox potential” value is −45 mV and the “E(II) redox potential” value was 135 mV.

On to `Cc1ncc([N+](=O)[O-])n1CCO` [Metronidazole, reference compound], for which the IC50 was 7 ± 0.9 µM in data set [2] (Entamoeba histolytica, E. histolytica HM1:IMSS trophozoites, viability curves at 24, 48 and 72 h, read-out: IC50); 6.92 µM in data set [2] (Entamoeba histolytica, logarithmic units of IC50 in µM, read-out: −log (1/IC50) (converted)).

As a reminder, the logP is a log measure of how a compound divides between an organic and an aqueous phase.

The record behind these values is PMC10458203, “The Amoebicidal Activity of Diferrocenyl Derivatives: A Significant Dependence on the Electronic Environment” (Molecules, 2023).
